Paper PMC6522524 (Nature Communications, 2019)
Values joined by “and” are separate entries in the source; they are usually repeats but may differ in a detail not shown here. Equal values may be shown once. Read-outs that look alike come from different tables or passages of the source.

What was measured:
[1] = tested on: Huh-7 cells; experiment: in vitro; format: cell-based, human; conditions: Huh7+HBV 1.2X; With DFO; Concentration 0 μM
Description: (§1) Supplementary Fig. 11. Effect of FBS serum iron level on Huh-7, HepG2, and HepG2.2.15 cell
(§2) a Cells were maintained in medium supplemented with 2% FBS or 10% FBS for 1 day and treated with
(§3) After 6 days, cytotoxicity was measured. b Cells were treated with
(§4) the ± SD. *p < 0.05 by unpaired two-tailed Student’s t-test.

[2] = tested on: HepG2 cells; experiment: in vitro; format: cell-based, human; conditions: HepG2+HBV 1.2X; With DFO; Concentration 0 μM
Description: as §1, §2, §3, §4

[3] = tested on: HepG2.2.15 cells; conditions: HepG2.2.15; With DFO; Concentration 0 μM
[4] = tested on: HBV replicative plasmid pAAV-HBV1.2× in C57BL/6 mice; experiment: Hydrodynamic injection mouse model (pAAV-HBV1.2×, C57BL/6 mice); format: in vivo; conditions: for HBsAg, Sample1-5: single samples
[5] = tested on: HBV (genotype D) in PXB mice; conditions: for ALT(ng/mL), Sample1-3 / HBeAg(Signal to control ratio), Sample1-3 / HBsAg(ng/mL), Sample1-3 / Human albumin(g/dL), Sample1-3: individual samples
[6] = tested on: HBV cccDNA in HepG2-NTCP cells; experiment: In vitro HBV infection model, HepG2-NTCP cells: intracellular cccDNA; conditions: HepG2-NTCP
Description: (§5) HepG2 and Huh-7 cells permanently expressing NTCP were generated by infecting them with an NTCP-encoding recombinant retrovirus and isolating GFP-expressing cells.
(§6) The isolated intracellular HBV DNA was subjected to PCR with an HBV DNA primer and probe set (Supplementary Table 1). cccDNA was isolated by the Hirt extraction method[54]. Briefly, the cells were lysed in SDS lysis buffer (50 mM Tris-HCl, pH 8.0, 10 mM EDTA, 150 mM NaCl, 1% SDS), and the lysates were mixed with KCl to a final concentration of 0.5 M. After incubation at 4 °C for 30 min, each lysate was centrifuged and the supernatant was extracted three times with phenol and once with chloroform. The DNA was then recovered by ethanol precipitation, and treated with T5 nuclease (10 U per μg for 0.5 h, M0363, New England Biolabs), and the enzyme was subsequently heat-denatured at 70 °C. The isolated cccDNA was subjected to PCR with a cccDNA primer and probe set (Supplementary Table 1).
(§7) HepG2-NTCP and Huh-7-NTCP cells were cultured in 12-well plates with the indicated compound(s) for 4 h, after which the cells were infected with HBV particles (10^7 viral genome equivalent per mL, genotype D) and treated with the indicated compound(s) for another 16 h. […]
(§8) Quantitative PCR with an HBV DNA primer and probe set was used to measure intracellular
(§9) cccDNA. The data are expressed as means ± SDs. […]

[7] = tested on: HBV cccDNA in Huh-7-NTCP cells; experiment: In vitro HBV infection model, Huh-7-NTCP cells: intracellular cccDNA; conditions: Huh-7-NTCP
Description: as §5, §6, §7, §8, §9

[8] = biological target: the molecule itself; experiment: crystal structure
[9] = 5 mg per kg oral daily, by day 5

**Q.** With `CC(=O)N(O)CCCCCNC(=O)CCC(=O)N(O)CCCCCNC(=O)CCC(=O)N(O)CCCCCN` [DFO] as the molecule, how does the “Cell viability(%), AVERAGE, DFO alone” value [1] read?
**A.** The value was 97.5263%.

**Q.** What about the “Cell viability(%), AVERAGE, DFO alone” value [2] of the same molecule?
**A.** The value was 98.1893%.

**Q.** And the “Cell viability(%), AVERAGE, DFO alone” value [3]?
**A.** The value was 97.6681%.

**Q.** What does the source list for `C[C@H](Cn1cnc2c(N)ncnc21)OCP(=O)(O)O` [TDF, tenofovir]?
**A.** HBV core protein levels in the liver [4, 9]: reduced HBV core protein levels in the liver; serum HBV DNA levels [4, 9]: significantly lowered serum HBV DNA levels; HBsAg, AVERAGE ([4]; day 2): 271.658 ng/mL; HBsAg, AVERAGE ([4]; day 3): 286.73 ng/mL; HBsAg, AVERAGE ([4]; day 4): 300.864 ng/mL; HBsAg, AVERAGE ([4]; day 5): 301.678 ng/mL; HBsAg, Sample1-5 ([4]; day 2): 271.684 ng/mL and 284.96 ng/mL and 258.424 ng/mL and 258.29 ng/mL and 284.933 ng/mL; HBsAg, Sample1-5 ([4]; day 3): 286.759 ng/mL and 301.375 ng/mL and 272.159 ng/mL and 272.011 ng/mL and 301.346 ng/mL; HBsAg, Sample1-5 ([4]; day 4): 300.869 ng/mL and 303.445 ng/mL and 298.296 ng/mL and 298.27 ng/mL and 303.44 ng/mL; HBsAg, Sample1-5 ([4]; day 5): 301.701 ng/mL and 312.285 ng/mL and 291.119 ng/mL and 291.012 ng/mL and 312.273 ng/mL; intrahepatic cccDNA ([5]; 5 mg per kg oral daily, by week 5): significantly reduced the amount of intrahepatic cccDNA; HBeAg levels ([5]; 5 mg per kg oral daily, by week 5, compared to control): significantly decreased HBeAg levels; cccDNA, individual samples ([5]; Figure 7g, Sample1-3): 0.17 log copies/cell and 0.21 log copies/cell and 0.12 log copies/cell; cccDNA, AVERAGE ([5]; Figure 7g, average of 3 samples): 0.166 log copies/cell; Serum HBV DNA, AVERAGE ([5]; mouse, in vivo): 4.377 log copies/mL; Serum HBV DNA, individual samples ([5]; mouse, in vivo): 4.385 log copies/mL and 3.759 log copies/mL and 4.998 log copies/mL; Serum ALT levels ([5]; mouse, in vivo, po): decreased; ALT(ng/mL), AVERAGE ([5]; week 0): 115.048 ng/mL; HBeAg(Signal to control ratio), AVERAGE ([5]; week 0): 3.779 Signal to control ratio; HBsAg(ng/mL), AVERAGE ([5]; week 0): 399.9 ng/mL; Human albumin(g/dL), AVERAGE ([5]; week 0): 4.601 g/dL; ALT(ng/mL), Sample1-3 ([5]; week 0): 115.042 ng/mL and 132.129 ng/mL and 97.9737 ng/mL; HBeAg(Signal to control ratio), Sample1-3 ([5]; week 0): 3.7788 Signal to control ratio and 3.545 Signal to control ratio and 4.013 Signal to control ratio; HBsAg(ng/mL), Sample1-3 ([5]; week 0): 400.008 ng/mL and 382.767 ng/mL and 416.907 ng/mL; Human albumin(g/dL), Sample1-3 ([5]; week 0): 4.6008 g/dL and 4.367 g/dL and 4.835 g/dL; ALT(ng/mL), AVERAGE ([5]; week 1): 115.048 ng/mL; HBeAg(Signal to control ratio), AVERAGE ([5]; week 1): 3.705 Signal to control ratio; HBsAg(ng/mL), AVERAGE ([5]; week 1): 397.7 ng/mL; Human albumin(g/dL), AVERAGE ([5]; week 1): 4.701 g/dL; ALT(ng/mL), Sample1-3 ([5]; week 1): 115.042 ng/mL and 132.61 ng/mL and 97.4937 ng/mL; HBeAg(Signal to control ratio), Sample1-3 ([5]; week 1): 3.705 Signal to control ratio and 3.582 Signal to control ratio and 3.828 Signal to control ratio; HBsAg(ng/mL), Sample1-3 ([5]; week 1): 397.708 ng/mL and 379.982 ng/mL and 415.082 ng/mL; Human albumin(g/dL), Sample1-3 ([5]; week 1): 4.7008 g/dL and 4.578 g/dL and 4.824 g/dL; ALT(ng/mL), AVERAGE ([5]; week 2): 67.3429 ng/mL; HBeAg(Signal to control ratio), AVERAGE ([5]; week 2): 3.6862 Signal to control ratio; HBsAg(ng/mL), AVERAGE ([5]; week 2): 390.5 ng/mL; Human albumin(g/dL), AVERAGE ([5]; week 2): 4.6007 g/dL; ALT(ng/mL), Sample1-3 ([5]; week 2): 67.3361 ng/mL and 86.0047 ng/mL and 48.688 ng/mL; HBeAg(Signal to control ratio), Sample1-3 ([5]; week 2): 3.6863 Signal to control ratio and 3.541 Signal to control ratio and 3.831 Signal to control ratio; HBsAg(ng/mL), Sample1-3 ([5]; week 2): 390.508 ng/mL and 371.671 ng/mL and 408.971 ng/mL; Human albumin(g/dL), Sample1-3 ([5]; week 2): 4.6008 g/dL and 4.456 g/dL and 4.746 g/dL; ALT(ng/mL), AVERAGE ([5]; week 3): 35.9023 ng/mL; HBeAg(Signal to control ratio), AVERAGE ([5]; week 3): 3.392 Signal to control ratio; HBsAg(ng/mL), AVERAGE ([5]; week 3): 386.5 ng/mL; Human albumin(g/dL), AVERAGE ([5]; week 3): 4.4 g/dL; HBeAg(Signal to control ratio), Sample1-3 ([5]; week 3): 3.3922 Signal to control ratio and 2.738 Signal to control ratio and 4.046 Signal to control ratio; HBsAg(ng/mL), Sample1-3 ([5]; week 3): 386.508 ng/mL and 366.308 ng/mL and 406.308 ng/mL; Human albumin(g/dL), Sample1-3 ([5]; week 3): 4.4008 g/dL and 3.746 g/dL and 5.054 g/dL; ALT(ng/mL), AVERAGE ([5]; week 4): 31.5198 ng/mL; HBeAg(Signal to control ratio), AVERAGE ([5]; week 4): 3.246 Signal to control ratio; HBsAg(ng/mL), AVERAGE ([5]; week 4): 375.5 ng/mL; Human albumin(g/dL), AVERAGE ([5]; week 4): 4.601 g/dL; HBeAg(Signal to control ratio), Sample1-3 ([5]; week 4): 3.2465 Signal to control ratio and 2.922 Signal to control ratio and 3.57 Signal to control ratio; HBsAg(ng/mL), Sample1-3 ([5]; week 4): 375.508 ng/mL and 355.54 ng/mL and 395.08 ng/mL; Human albumin(g/dL), Sample1-3 ([5]; week 4): 4.6008 g/dL and 4.276 g/dL and 4.924 g/dL; ALT(ng/mL), AVERAGE ([5]; week 5): 19.0197 ng/mL; HBeAg(Signal to control ratio), AVERAGE ([5]; week 5): 3.146 Signal to control ratio; HBsAg(ng/mL), AVERAGE ([5]; week 5): 370.7 ng/mL; Human albumin(g/dL), AVERAGE ([5]; week 5): 4.801 g/dL; HBeAg(Signal to control ratio), Sample1-3 ([5]; week 5): 3.1465 Signal to control ratio and 2.933 Signal to control ratio and 3.359 Signal to control ratio; HBsAg(ng/mL), Sample1-3 ([5]; week 5): 370.708 ng/mL and 351.467 ng/mL and 389.567 ng/mL; Human albumin(g/dL), Sample1-3 ([5]; week 5): 4.8008 g/dL and 4.588 g/dL and 5.014 g/dL; cccDNA levels [6]: reduced cccDNA levels; cccDNA levels [7]: reduced cccDNA levels

B1: Cp149-Y132A (Y132A mutant of Cp149) (domain or fragment)
chain: MDIDPYKEFGATVELLSFLPSDFFPSVRDLLDTAAALYRDALESPEHCSPHHTALRQAILCWGDLMTLATWVGTNLEDPASRDLVVSYVNTNVGLKFRQLLWFHISCLTFGRETVLEYLVSFGVWIRTPPAARPPNAPILSTLPETTVV
notes: source: E. coli BL21 (DE3), purified (Ni-NTA, thrombin, HiTrap Q anion exchange)
**Q.** Which “stoichiometry N” value [8] does the source give for B1 here?
**A.** Its value is 6.
